Bridge positions count the residues as written; N and C are the ends. Square brackets hold non-standard residues; d marks the D form. Triazole bridges read from a SMILES are 1,4-linked. Ends that are not written are not given here. Peptide text beside a SMILES is read from it. Lys(N3) = [N-]=[N+]=NCCCC[C@H](N)C(=O)O; Pra = C#CC[C@H](N)C(=O)O
How the values were obtained:
recombinant PSMA = recombinant PSMA (Homo sapiens, UniProt Q04609); assay: ELISA against recombinant PSMA protein; type: binding
Sequence of recombinant PSMA (Q04609 whole entry): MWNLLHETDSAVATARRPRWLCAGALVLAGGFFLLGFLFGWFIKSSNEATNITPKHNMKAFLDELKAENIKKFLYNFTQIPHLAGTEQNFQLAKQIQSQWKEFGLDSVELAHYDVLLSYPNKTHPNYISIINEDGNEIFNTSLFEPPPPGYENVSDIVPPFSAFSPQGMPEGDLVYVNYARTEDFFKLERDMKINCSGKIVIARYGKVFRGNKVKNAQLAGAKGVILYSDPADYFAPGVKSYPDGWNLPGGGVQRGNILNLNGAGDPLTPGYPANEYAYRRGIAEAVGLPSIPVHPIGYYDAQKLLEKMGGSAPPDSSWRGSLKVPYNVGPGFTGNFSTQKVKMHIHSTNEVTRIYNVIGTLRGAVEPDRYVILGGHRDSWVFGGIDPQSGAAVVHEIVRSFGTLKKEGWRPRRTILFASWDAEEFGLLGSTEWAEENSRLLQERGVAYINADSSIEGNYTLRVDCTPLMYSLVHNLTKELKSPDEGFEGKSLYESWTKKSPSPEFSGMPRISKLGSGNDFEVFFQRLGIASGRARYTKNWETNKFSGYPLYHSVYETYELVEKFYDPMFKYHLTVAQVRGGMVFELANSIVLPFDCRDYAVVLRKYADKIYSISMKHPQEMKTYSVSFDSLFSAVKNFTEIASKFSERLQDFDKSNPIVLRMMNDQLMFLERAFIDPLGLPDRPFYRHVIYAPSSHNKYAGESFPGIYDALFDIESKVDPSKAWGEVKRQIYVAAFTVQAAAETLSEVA
From the text: (§1) Hits resulting from the epitope 2 screen were also profiled by ELISA and flow.
(§2) Hits resulting from the epitope 3 screen were scaled up and subjected to ELISA and flow experiments.
(§3) Hits resulting from the epitope 4 screen were also profiled in ELISA and flow cytometry.
(§4) To increase the throughput of the screening step, three epitopes were mixed and screened against the pre-cleared library. PSMA epitopes 2C, 6, and 7 were mixed and picked by either an ImmPACT Vector Red or BCIP/NBT dye (FIG. 11). The ImmPACT Vector Red screen identified the hit peptide ehtye (SEQ ID NO:22). […] Further epitope selectivity can be deconvoluted via a single epitope orientation assay.

LNCaP cells (PSMA+) = assay: Flow cytometry binding to PSMA+ cells; type: cell-based
From the text: as §1, §2, §3, §4

full length PSMA protein = molecular target: T1, full length PSMA protein (Homo sapiens, UniProt Q04609); assay: Bead screen with 50 nM full length PSMA protein; type: binding; details: beads that did not bind LNCaP cells
T1 construct: were incubated with 50 nM full length PSMA protein
T1 sequence (Q04609 whole entry): as above
From the text: Some beads were lost during this screen. Most beads turned purple. […] These will be evaluated further by calculating their binding affinities by docking against the screened epitopes 2C, 6, and 7. Clustering analysis was used to identify some interesting sequences. Sequences found in the periphery (pkvrd (SEQ ID NO:27), frvkd (SEQ ID NO:28), dyksk (SEQ ID NO:32), Grkpf (SEQ ID NO:35), kwndd (SEQ ID NO:36), tkGne (SEQ ID NO:39), kvetd (SEQ ID NO:41), neGfd (SEQ ID NO:42), ekfld (SEQ ID NO:43), dkkaw (SEQ ID NO:44), veyGn (SEQ ID NO:45)) are generally preferred because they are more interesting chemically.

PC3 (PSMA−) cells = assay: Flow cytometry binding to PSMA- cells; type: cell-based
From the text: as §1, §2, §4

CD8 = assay: ELISA selectivity over an unrelated protein; type: binding
[1] = test system: LNCaP cells (a PSMA+ cell line); assay: LNCaP cell adherence to hit beads; type: cell-based; details: on-bead peptide
[2] = molecular target: T2, His-PSMA (Sino Biological) (Homo sapiens, UniProt Q04609); assay: ELISA, PSMA immobilized via His-tag, PCC titrated in solution; type: binding; details: biotin-PEG10-PEG10-peptide ligands
T2 construct: purchased Sino Biological
T2 sequence (Q04609 whole entry): as above
Method: (§5) Epitope 5 hits were tested for binding to PSMA by ELISA (PSMA immobilized; PCC titrated in solution). Two immobilization strategies were employed: a His-tag and Myc-Flag tag (His-PSMA (Sino Biological) and PSMA-Myc-Flag (Origene)).

PSMA-Myc-Flag (Origene) = molecular target: T3, PSMA-Myc-Flag (Origene) (Homo sapiens, UniProt Q04609); assay: ELISA, PSMA immobilized via Myc-Flag tag, PCC titrated in solution; type: binding; details: biotin-PEG10-PEG10-peptide ligands
T3 construct: purchased Origene
T3 sequence (Q04609 whole entry): as above
Method: as §5

binding to recombinant PSMA by ELISA (recombinant PSMA) | Compound | binding to LNCaP (PSMA+) cells by flow (LNCaP cells (PSMA+)) | binding to PC3 / PSMA− cells by flow (PC3 (PSMA−) cells) | adherence of LNCaP cells to the bead [1] | other results
no binding | dntwp: dark purple bead in full length PSMA screen ([dD][dN][dT][dW][dP]) | no binding |  |  | bead colour after incubation with PSMA protein (full length PSMA protein): darker than the others
 | CC(=O)N[C@H]1Cc2cn(nn2)CCCC[C@@H](C(N)=O)NC(=O)[C@@H](Cc2c[nH]cn2)NC(=O)[C@@H](Cc2c[nH]cn2)NC(=O)[C@@H](CCCCN)NC(=O)[C@@H](Cc2ccccc2)NC(=O)[C@@H](CC(C)C)NC1=O [lfkhh] (Ac-[Pra][dL][dF][dK][dH][dH][Lys(N3)]-NH2; triazole 1-7; N-terminus and C-terminus assumed) | bound equally | bound equally |  | 
 | ert: epitope 2A/2B hit1 (Table 3) ([dE]-[dR]-[dT]) | did not show binding | did not show binding |  | 
no binding | dwpve: LNCaP-adherent bead hit1 (Table 8) ([dD][dW][dP][dV][dE]) | no binding |  | good adherence | 
 | CC(=O)N[C@H]1Cc2cn(nn2)CCCC[C@@H](C(N)=O)NC(=O)[C@@H](Cc2c[nH]c3ccccc23)NC(=O)[C@@H](Cc2c[nH]c3ccccc23)NC(=O)[C@@H](CCC(=O)O)NC(=O)[C@@H](CCCNC(=N)N)NC(=O)[C@@H](Cc2c[nH]cn2)NC1=O [hreww] (Ac-[Pra][dH][dR][dE][dW][dW][Lys(N3)]-NH2; triazole 1-7; N-terminus and C-terminus assumed) |  |  |  | binding to PSMA by ELISA [2]: nanomolar binding affinity; binding to PSMA by ELISA (PSMA-Myc-Flag (Origene)): nanomolar binding affinity
 | ert dimer: dimer of epitope 2 hit ert, PEG10-ert-Tz-ert ([dE]-[dR]-[dT]; also: dimer: PEG10-ert-Tz-ert) | showed binding | showed binding |  | EC50 (recombinant PSMA; read-out: EC50 of binding to recombinant PSMA by ELISA): 769 nM
no binding | kwtsd: LNCaP-adherent bead hit2 (Table 8) ([dK][dW][dT][dS][dD]) | no binding |  | good adherence | 

Compound | binding to recombinant PSMA by ELISA (recombinant PSMA) | binding to LNCaP (PSMA+) cells by flow (LNCaP cells (PSMA+)) | binding to PC3 / PSMA− cells by flow (PC3 (PSMA−) cells) | adherence of LNCaP cells to the bead [1] | other results
ehtye: hit of ImmPACT Vector Red screen against mixed epitopes 2C, 6, 7 ([dE][dH][dT][dY][dE]) | Binding to recombinant PSMA protein was achieved |  | increased binding to PSMA− cells |  | selectivity for PSMA over an unrelated protein (CD8) (CD8): good selectivity
svand: LNCaP-adherent bead hit3 (Table 8) ([dS][dV][dA][dN][dD]) | Binding to recombinant PSMA protein was achieved | modest | same binding to both PSMA+ and PSMA− cells | good adherence | selectivity for PSMA over an unrelated protein (CD8) (CD8): good selectivity

— patent US11638764B2, “Theranostic capture agents, compositions, and methods of using and making” (Indi Molecular, Inc., priority 2018, dated 2023)
